ChEMBL document CHEMBL1201862, “PubChem BioAssay data set” (2004)
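96-well plates; 48 h exposure; 5 concentrations. Endpoints by linear interpolation between flanking doses. Not reached: highest tested concentration assigned. GI50 marks 50% less growth.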 Activity calls are given as the source filed them. Cut-off read from the data, not from the text of the source: active = GI50 up to about 1.1 µM and inactive = higher.

Tests used:
Experiment in all cases: DTP human tumour cell line panel, 48 h
[1] = tested on: SNB-78
[2] = tested on: KM-20L2
[3] = tested on: DMS-273
[4] = tested on: RXF 631
[5] = tested on: DLD-1
[6] = tested on: DMS-114
[7] = tested on: XF498
[8] = tested on: M19-MEL
[9] = tested on: HOP-18

Row | Structure (SMILES) | GI50 [1] | GI50 [2] | GI50 [3] | GI50 [4] | GI50 [5] | GI50 [6] | GI50 [7] | GI50 [8] | GI50 [9]
1 | COc1ccc(C(Cl)=C(c2ccc(OCCN(C)C)cc2)c2ccc(OCCN(C)C)cc2)cc1 | 1.71 µM (inactive) | 1.36 µM (inactive) | 1.86 µM (inactive) | 0.322 µM (active) | 2.51 µM (inactive) | 1.6 µM (inactive) | 1.46 µM (inactive) | – | –
2 | COc1ccc(CNc2cnc3ccc(N)cc3n2)cc1 | 82.8 µM (inactive) | – | 0.0531 µM (active) | – | > 100 µM (inactive) | 2.09 µM (inactive) | > 100 µM (inactive) | 0.243 µM (active) | > 100 µM (inactive)
3 | CCc1c(C)[nH]c2c1/C(=N/N=C1\CCCc3[nH]c(C)c(CC)c31)CCC2 | 27.4 µM (inactive) | 27 µM (inactive) | 17.4 µM (inactive) | 22.5 µM (inactive) | > 100 µM (inactive) | 14.1 µM (inactive) | 18.2 µM (inactive) | 20.6 µM (inactive) | –
4 | N#C/C(=C\c1cc(OCc2ccccc2)c(OCc2ccccc2)cn1)C(N)=O | > 100 µM (inactive) | > 100 µM (inactive) | – | > 100 µM (inactive) | > 100 µM (inactive) | 81.3 µM (inactive) | > 100 µM (inactive) | > 100 µM (inactive) | –
5 | Cc1nc2nnnn2c2c1C(=O)Nc1ccccc1N2 | > 100 µM (inactive) | > 100 µM (inactive) | > 100 µM (inactive) | – | > 100 µM (inactive) | > 100 µM (inactive) | > 100 µM (inactive) | > 100 µM (inactive) | > 100 µM (inactive)
6 | Cc1ccc(/N=C2\N=C(N3CC(C)OC(C)C3)c3ccccc32)cc1 (stereo unspecified) | 31.1 µM (inactive) | 27.5 µM (inactive) | 28.1 µM (inactive) | 34.9 µM (inactive) | 41.3 µM (inactive) | – | 24.3 µM (inactive) | 36.1 µM (inactive) | –
7 | CC(N)Cc1ccc(Cl)cc1 (stereo unspecified) | – | 47.2 µM (inactive) | > 100 µM (inactive) | – | > 100 µM (inactive) | – | > 100 µM (inactive) | – | > 100 µM (inactive)
8 | CCCCCCCCCCCCSC(=S)c1c(C)[nH]n(-c2ccccc2)c1=O | 29.8 µM (inactive) | 10.2 µM (inactive) | – | 13.2 µM (inactive) | 2.3 µM (inactive) | 6.84 µM (inactive) | – | – | > 50 µM (inactive)
9 | CN(C)CCNC(=O)c1cccc2[nH]c(-c3cccnc3)nc12 | 35 µM (inactive) | – | 20.7 µM (inactive) | – | 22.2 µM (inactive) | – | – | 20.2 µM (inactive) | 25.2 µM (inactive)
10 | Cn1c(=O)c2c(nc3n2CCC(=O)N3)n(C)c1=O | > 100 µM (inactive) | > 100 µM (inactive) | > 100 µM (inactive) | > 100 µM (inactive) | > 100 µM (inactive) | > 100 µM (inactive) | – | > 100 µM (inactive) | –
11 | OCC(O)C(O)C(O)c1nn(-c2ccc(F)cc2)c2nc3cc(Cl)c(Cl)cc3nc12 (stereo unspecified) | 13.8 µM (inactive) | 49.7 µM (inactive) | 15.9 µM (inactive) | – | 32.7 µM (inactive) | 21.3 µM (inactive) | 11.4 µM (inactive) | 22 µM (inactive) | 16.9 µM (inactive)
12 | NC1(CCCCCCCCCCC(=O)O)CNCCNCCNCCNC1 | – | 24.9 µM (inactive) | – | – | 40.7 µM (inactive) | 28.8 µM (inactive) | – | 39.6 µM (inactive) | –
13 | O=C1C=CC2(CCCCCCC2=O)CC1 (stereo unspecified) | > 100 µM (inactive) | > 100 µM (inactive) | > 100 µM (inactive) | – | > 100 µM (inactive) | – | – | > 100 µM (inactive) | > 100 µM (inactive)
14 | O=C(O)/C=C/C(=O)N1C/C(=C\c2ccccc2)C(=O)/C(=C/c2ccccc2)C1 | 5.9 µM (inactive) | 5.9 µM (inactive) | 8.53 µM (inactive) | – | 3.94 µM (inactive) | 2.99 µM (inactive) | 7.18 µM (inactive) | 3.21 µM (inactive) | 11.9 µM (inactive)
15 | CCOC(=O)C(CCC(N)=O)(CCC(=O)OC)C(=O)OCC | > 100 µM (inactive) | > 100 µM (inactive) | > 100 µM (inactive) | – | > 100 µM (inactive) | > 100 µM (inactive) | > 100 µM (inactive) | > 100 µM (inactive) | > 100 µM (inactive)
16 | CCOC(=O)NC(=O)c1cn(CCN2CCN(C(=O)CNC(=O)CNC(=O)Cn3cc(C(=O)NC(=O)OCC)c(=O)[nH]c3=O)CC2)c(=O)[nH]c1=O | > 100 µM (inactive) | > 100 µM (inactive) | > 100 µM (inactive) | – | > 100 µM (inactive) | > 100 µM (inactive) | > 100 µM (inactive) | > 100 µM (inactive) | > 100 µM (inactive)
17 | Cc1ccc(C)c(NC(=O)CC/C(=N\NC(=O)c2c(O)ccc3ccccc23)C(C)C(=O)c2ccc(O)cc2)c1 (stereo unspecified) | 36.2 µM (inactive) | 15.1 µM (inactive) | 26.9 µM (inactive) | – | 52.5 µM (inactive) | – | 44.3 µM (inactive) | – | 14.3 µM (inactive)
18 | COC(=O)/C(=N\NC(N)=S)C(C#N)c1ccccc1 (stereo unspecified) | > 100 µM (inactive) | > 100 µM (inactive) | – | – | > 100 µM (inactive) | > 100 µM (inactive) | > 100 µM (inactive) | > 100 µM (inactive) | –
19 | COc1cc(C[P+](c2ccccc2)(c2ccccc2)c2ccccc2)cc(OC)c1OC | > 100 µM (inactive) | > 100 µM (inactive) | > 100 µM (inactive) | – | > 100 µM (inactive) | > 100 µM (inactive) | > 100 µM (inactive) | > 100 µM (inactive) | –
20 | O=C(O)CCNS(=O)(=O)c1ccc(NC(=O)c2ccccc2)cc1 | – | > 100 µM (inactive) | > 100 µM (inactive) | – | > 100 µM (inactive) | – | > 100 µM (inactive) | > 100 µM (inactive) | > 100 µM (inactive)
21 | O=C1C2CC=CCC2C(=O)C12CCc1ccccc12 (stereo unspecified) | > 100 µM (inactive) | > 100 µM (inactive) | > 100 µM (inactive) | – | > 100 µM (inactive) | – | > 100 µM (inactive) | > 100 µM (inactive) | 8.15 µM (inactive)
22 | CN(C)c1ccc(/C=C(/C(=O)O)c2csc(-c3nc(/C(=C\c4ccc(N(C)C)cc4)C(=O)O)cs3)n2)cc1 | > 100 µM (inactive) | > 100 µM (inactive) | – | – | > 100 µM (inactive) | 29.9 µM (inactive) | – | > 100 µM (inactive) | –
